Key:
JAK1 = biological target: T1, JAK1 (Homo sapiens, UniProt P23458); assay: Biochemical JAK1 kinase assay (LanthaScreen); details: for Ki: read-out: JAK 1 (pKi) (converted)
T1 construct: GST; purchased Life Technologies
Method in brief: (§1)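 TR-FRET readout (520/495 nm) using Tb-labelled pTyr701 antibody after EDTA stop, following 1 h ATP-started phosphorylation of GFP-STAT1 by recombinant GST-JAK. Compounds preincubated 1 h with enzyme and substrate; pIC50 from 4-parameter fit, Cheng-Prusoff gives pKi.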

JAK2 = biological target: T2, JAK2 (Homo sapiens, UniProt O60674); assay: Biochemical JAK2 kinase assay (LanthaScreen); details: for Ki: read-out: JAK 2 (pKi) (converted)
T2 construct: GST; purchased Life Technologies
T2 sequence (O60674 whole entry): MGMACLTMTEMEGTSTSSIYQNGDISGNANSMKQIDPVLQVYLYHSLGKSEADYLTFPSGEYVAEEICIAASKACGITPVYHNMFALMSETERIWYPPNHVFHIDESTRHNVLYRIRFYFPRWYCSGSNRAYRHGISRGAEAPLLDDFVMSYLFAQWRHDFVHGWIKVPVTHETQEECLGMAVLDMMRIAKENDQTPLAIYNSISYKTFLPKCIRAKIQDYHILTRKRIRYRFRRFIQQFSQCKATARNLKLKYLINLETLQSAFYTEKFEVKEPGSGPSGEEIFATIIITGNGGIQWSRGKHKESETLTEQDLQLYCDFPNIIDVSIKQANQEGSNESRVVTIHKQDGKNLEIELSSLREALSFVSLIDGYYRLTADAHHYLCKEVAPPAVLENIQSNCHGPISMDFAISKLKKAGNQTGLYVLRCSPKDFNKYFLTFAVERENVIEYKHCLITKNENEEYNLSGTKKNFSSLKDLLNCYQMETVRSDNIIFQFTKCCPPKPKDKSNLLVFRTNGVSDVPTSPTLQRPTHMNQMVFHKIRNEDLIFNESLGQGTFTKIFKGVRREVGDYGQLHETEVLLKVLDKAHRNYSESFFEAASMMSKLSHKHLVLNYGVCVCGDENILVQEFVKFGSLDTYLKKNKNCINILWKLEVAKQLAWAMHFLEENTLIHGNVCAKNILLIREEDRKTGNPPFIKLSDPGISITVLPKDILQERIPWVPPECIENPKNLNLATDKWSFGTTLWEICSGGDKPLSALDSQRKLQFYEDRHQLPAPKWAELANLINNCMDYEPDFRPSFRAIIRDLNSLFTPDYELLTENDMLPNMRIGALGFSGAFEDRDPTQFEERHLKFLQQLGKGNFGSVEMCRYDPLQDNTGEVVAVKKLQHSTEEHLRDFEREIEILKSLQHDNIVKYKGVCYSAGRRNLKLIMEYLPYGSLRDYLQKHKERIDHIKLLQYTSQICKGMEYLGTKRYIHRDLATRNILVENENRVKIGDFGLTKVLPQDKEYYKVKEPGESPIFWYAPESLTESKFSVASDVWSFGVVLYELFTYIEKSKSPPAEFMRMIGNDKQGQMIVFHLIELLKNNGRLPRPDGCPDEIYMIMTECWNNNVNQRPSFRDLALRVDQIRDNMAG
Method in brief: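 GST-tagged recombinant JAK2 pre-incubated 1 h at ambient temperature with compound and GFP-STAT1 peptide in HEPES pH 7.5/MgCl2 buffer, then ATP added for a 1 h reaction with 1% DMSO. TR-FRET read after EDTA and Tb-anti-pSTAT1 (pTyr701) addition; IC50 from 4-parameter fit, converted to pKi by Cheng-Prusoff.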

Tyk2 = biological target: T3, Tyk2 (Homo sapiens, UniProt P29597); assay: Biochemical Tyk2 kinase assay (LanthaScreen); details: for Ki: read-out: Tyk 2 (pKi) (converted)
T3 construct: GST; purchased Life Technologies
T3 sequence (P29597 whole entry): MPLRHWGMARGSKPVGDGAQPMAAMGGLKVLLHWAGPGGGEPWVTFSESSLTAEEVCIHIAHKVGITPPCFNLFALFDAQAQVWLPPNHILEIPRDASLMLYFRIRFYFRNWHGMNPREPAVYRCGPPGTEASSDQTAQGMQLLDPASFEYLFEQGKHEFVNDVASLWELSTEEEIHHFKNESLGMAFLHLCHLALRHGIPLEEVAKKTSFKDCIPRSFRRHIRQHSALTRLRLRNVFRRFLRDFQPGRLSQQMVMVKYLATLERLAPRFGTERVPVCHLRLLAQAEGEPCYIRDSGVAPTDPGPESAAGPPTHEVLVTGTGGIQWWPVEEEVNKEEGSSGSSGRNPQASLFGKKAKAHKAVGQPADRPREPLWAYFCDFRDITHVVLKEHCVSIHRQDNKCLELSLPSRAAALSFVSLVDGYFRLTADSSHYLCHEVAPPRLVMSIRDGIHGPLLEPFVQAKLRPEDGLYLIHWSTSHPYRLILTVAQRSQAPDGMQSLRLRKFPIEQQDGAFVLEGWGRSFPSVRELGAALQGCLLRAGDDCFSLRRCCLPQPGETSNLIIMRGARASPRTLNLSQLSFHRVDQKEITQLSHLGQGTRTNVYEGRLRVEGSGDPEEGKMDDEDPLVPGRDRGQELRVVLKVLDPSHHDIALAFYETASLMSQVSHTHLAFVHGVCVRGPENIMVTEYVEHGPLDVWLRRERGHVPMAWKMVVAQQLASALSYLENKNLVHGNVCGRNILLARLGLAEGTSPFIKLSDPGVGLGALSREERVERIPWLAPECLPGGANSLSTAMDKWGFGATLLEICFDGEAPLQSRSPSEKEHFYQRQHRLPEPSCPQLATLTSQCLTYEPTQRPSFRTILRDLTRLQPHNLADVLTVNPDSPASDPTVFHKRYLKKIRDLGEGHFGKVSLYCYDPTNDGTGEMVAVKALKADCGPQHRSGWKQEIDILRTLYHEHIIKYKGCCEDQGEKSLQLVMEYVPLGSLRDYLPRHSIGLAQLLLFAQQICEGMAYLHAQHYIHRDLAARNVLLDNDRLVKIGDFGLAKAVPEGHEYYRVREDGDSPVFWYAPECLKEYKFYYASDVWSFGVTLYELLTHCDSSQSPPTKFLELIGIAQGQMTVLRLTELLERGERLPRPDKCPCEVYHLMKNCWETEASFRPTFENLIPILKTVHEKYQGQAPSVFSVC
Method in brief: as §1

[1] = test system: IL-2 stimulated pSTAT5 in Tall-1 T cells; assay: Cellular JAK3 potency assay: inhibition of IL-2 stimulated pSTAT5 in Tall-1 T cells; type: cell-based, human; details: for Tall-1 (pIC50): IL-2 stimulated pSTAT5 in Tall-1 T cells; for IC50: Homo sapiens, TALL-1, IL-2 stimulated pSTAT5 in Tall-1 T cells, read-out: Tall-1 (pIC50) (converted)
Method in brief: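 In human Tall-1 T cells, IL-2 (300 ng/ml final, 30 min) drives STAT5 phosphorylation after a 1 h compound pretreatment. Lysates are assayed for pSTAT5 by AlphaLisa, and IC50 derived from signal versus concentration is expressed as pIC50.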

JAK3 = biological target: T4, JAK3 (Homo sapiens, UniProt P52333); assay: Biochemical JAK3 kinase assay (LanthaScreen); parameters: GST; purchased Life Technologies; details: for JAK3 (pKi)-JAK1 (pKi): selectivity: difference of pKi JAK3 and pKi JAK1; for Ki: read-out: JAK 3 (pKi) (converted)
T4 sequence (P52333 1-1124): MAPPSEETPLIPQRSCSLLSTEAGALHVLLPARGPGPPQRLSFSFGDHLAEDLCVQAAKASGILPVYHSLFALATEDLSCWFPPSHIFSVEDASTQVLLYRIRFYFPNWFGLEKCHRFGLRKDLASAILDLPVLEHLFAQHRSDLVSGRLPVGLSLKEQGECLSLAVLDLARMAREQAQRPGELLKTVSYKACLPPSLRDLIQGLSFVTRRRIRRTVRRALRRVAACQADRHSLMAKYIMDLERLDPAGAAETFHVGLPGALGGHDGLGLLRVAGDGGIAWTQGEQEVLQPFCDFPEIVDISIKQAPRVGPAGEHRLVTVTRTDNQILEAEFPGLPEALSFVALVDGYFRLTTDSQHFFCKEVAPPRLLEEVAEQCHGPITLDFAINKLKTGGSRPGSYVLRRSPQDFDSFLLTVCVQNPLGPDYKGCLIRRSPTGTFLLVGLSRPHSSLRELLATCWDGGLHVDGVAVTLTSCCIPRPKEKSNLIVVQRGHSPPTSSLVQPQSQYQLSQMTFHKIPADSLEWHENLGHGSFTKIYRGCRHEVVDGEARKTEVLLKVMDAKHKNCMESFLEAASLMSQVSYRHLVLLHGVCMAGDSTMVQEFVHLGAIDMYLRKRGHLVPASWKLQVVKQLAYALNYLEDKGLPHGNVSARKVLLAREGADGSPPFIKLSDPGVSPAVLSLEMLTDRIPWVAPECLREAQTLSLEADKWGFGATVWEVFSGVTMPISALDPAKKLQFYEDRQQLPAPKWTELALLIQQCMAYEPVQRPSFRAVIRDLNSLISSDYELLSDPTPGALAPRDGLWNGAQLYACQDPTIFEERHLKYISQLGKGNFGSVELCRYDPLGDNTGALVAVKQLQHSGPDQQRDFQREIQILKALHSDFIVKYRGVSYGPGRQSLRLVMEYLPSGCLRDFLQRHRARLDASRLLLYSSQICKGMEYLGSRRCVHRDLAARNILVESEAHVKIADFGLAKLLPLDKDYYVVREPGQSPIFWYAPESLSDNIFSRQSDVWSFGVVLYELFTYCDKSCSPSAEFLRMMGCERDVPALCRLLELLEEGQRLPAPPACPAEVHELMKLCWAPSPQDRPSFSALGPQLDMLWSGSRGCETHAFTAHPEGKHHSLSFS
Method in brief: as §1

T1 sequence (P23458 whole entry): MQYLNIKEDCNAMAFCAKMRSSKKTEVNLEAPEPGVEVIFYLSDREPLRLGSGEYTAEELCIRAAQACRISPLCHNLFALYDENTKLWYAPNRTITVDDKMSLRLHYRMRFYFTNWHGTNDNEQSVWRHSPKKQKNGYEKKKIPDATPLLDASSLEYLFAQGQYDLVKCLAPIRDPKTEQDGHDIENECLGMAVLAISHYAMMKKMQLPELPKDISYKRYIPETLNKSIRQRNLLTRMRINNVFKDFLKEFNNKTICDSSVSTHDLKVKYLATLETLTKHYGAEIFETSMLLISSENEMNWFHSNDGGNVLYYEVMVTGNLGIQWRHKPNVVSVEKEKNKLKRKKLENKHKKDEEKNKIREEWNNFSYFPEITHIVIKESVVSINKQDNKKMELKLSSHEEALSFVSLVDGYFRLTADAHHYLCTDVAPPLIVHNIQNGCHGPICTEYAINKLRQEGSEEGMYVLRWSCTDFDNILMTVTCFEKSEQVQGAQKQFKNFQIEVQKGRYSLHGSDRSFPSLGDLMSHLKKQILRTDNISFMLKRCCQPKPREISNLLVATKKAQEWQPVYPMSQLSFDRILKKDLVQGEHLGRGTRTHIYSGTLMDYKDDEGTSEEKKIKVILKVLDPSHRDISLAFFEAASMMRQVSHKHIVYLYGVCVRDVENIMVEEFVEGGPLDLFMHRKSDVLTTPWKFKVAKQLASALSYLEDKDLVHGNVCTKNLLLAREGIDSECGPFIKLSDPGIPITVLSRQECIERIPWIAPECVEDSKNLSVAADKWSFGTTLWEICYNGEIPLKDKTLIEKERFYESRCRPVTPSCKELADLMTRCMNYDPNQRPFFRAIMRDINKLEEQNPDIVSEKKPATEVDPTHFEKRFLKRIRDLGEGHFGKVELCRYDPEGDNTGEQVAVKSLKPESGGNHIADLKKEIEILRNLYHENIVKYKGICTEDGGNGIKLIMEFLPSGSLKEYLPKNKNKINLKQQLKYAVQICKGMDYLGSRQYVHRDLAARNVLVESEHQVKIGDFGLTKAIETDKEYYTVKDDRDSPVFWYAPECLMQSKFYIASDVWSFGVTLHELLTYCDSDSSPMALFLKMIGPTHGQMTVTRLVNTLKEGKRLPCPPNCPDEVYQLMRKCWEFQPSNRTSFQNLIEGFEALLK

| Compound | JAK 1 (pKi) (JAK1) | JAK 2 (pKi) (JAK2) | Tyk 2 (pKi) (Tyk2) | Tall-1 (pIC50) [1] | JAK 3 (pKi) (JAK3) | JAK3 (pKi)-JAK1 (pKi) (JAK3) | Ki (JAK1) [nM] | Ki (JAK2) [nM] | Ki (Tyk2) [nM] | IC50 [1] [nM] | Ki (JAK3) [nM] |
| --- | --- | --- | --- | --- | --- | --- | --- | --- | --- | --- | --- |
| CN(C)C/C=C/C(=O)N1CC(C)(COc2nc(-c3ccc(O)c(Cl)c3)cc3[nH]ncc23)C1 [Compound 3-95] | E (a pKi value of 7 or below (Ki of 100 nM or above)) | E (a pKi value of 7 or below (Ki of 100 nM or above)) | E (a pKi value of 7 or below (Ki of 100 nM or above)) | A (a pIC50 value≥7.5 (IC50≤32 nM)) | A (a pKi value≥10 (Ki≤0.1 nM)) | A (a value of 3 or above) |  |  |  |  |  |
| CN(C)C/C=C/C(=O)N1CC(C)(COc2nc(-c3ccc(O)c(F)c3)cc3[nH]ncc23)C1 [Compound 3-96] | E (a pKi value of 7 or below (Ki of 100 nM or above)) | E (a pKi value of 7 or below (Ki of 100 nM or above)) | E (a pKi value of 7 or below (Ki of 100 nM or above)) | B (a pIC50 value between 6.7 (included) and 7.5 (IC50 between 200 nM and 32 nM)) | B (a pKi value between 9 and 10 (Ki between 1 nM and 0.1 nM)) | A (a value of 3 or above) |  |  |  |  |  |
| C=CC(=O)N1CC(C)(COc2nc(-c3ccc(O)c(Cl)c3)cc3[nH]ncc23)C1 [Compound 3-97] | E (a pKi value of 7 or below (Ki of 100 nM or above)) | E (a pKi value of 7 or below (Ki of 100 nM or above)) | E (a pKi value of 7 or below (Ki of 100 nM or above)) | A (a pIC50 value≥7.5 (IC50≤32 nM)) | B (a pKi value between 9 and 10 (Ki between 1 nM and 0.1 nM)) | B (a value of 2.3 to 3) |  |  |  |  |  |
| C=CC(=O)N1CC(C)(COc2cc(-c3ccc(O)c(F)c3)nc3[nH]ncc23)C1 [Compound 3-98] |  |  |  |  |  | A (a value of 3 or above) | > 100 | > 100 | > 100 | 31.6 to 200 | < 0.1 |
| CCC1(COc2nc(-c3ccc(O)c(Cl)c3)cc3[nH]ncc23)CN(C(=O)/C=C/CN(C)C)C1 [Compound 3-99] | E (a pKi value of 7 or below (Ki of 100 nM or above)) | E (a pKi value of 7 or below (Ki of 100 nM or above)) | E (a pKi value of 7 or below (Ki of 100 nM or above)) | A (a pIC50 value≥7.5 (IC50≤32 nM)) | A (a pKi value≥10 (Ki≤0.1 nM)) | A (a value of 3 or above) |  |  |  |  |  |
| CCC1(COc2nc(-c3ccc(O)c(F)c3)cc3[nH]ncc23)CN(C(=O)/C=C/CN(C)C)C1 [Compound 3-100] | E (a pKi value of 7 or below (Ki of 100 nM or above)) | E (a pKi value of 7 or below (Ki of 100 nM or above)) | E (a pKi value of 7 or below (Ki of 100 nM or above)) | A (a pIC50 value≥7.5 (IC50≤32 nM)) | B (a pKi value between 9 and 10 (Ki between 1 nM and 0.1 nM)) | A (a value of 3 or above) |  |  |  |  |  |
| C=CC(=O)N1CC(CC)(COc2nc(-c3ccc(O)c(F)c3)cc3[nH]ncc23)C1 [Compound 3-101] | E (a pKi value of 7 or below (Ki of 100 nM or above)) | D (a pKi value between 7 and 8 (Ki between 100 nM and 10 nM)) | E (a pKi value of 7 or below (Ki of 100 nM or above)) | A (a pIC50 value≥7.5 (IC50≤32 nM)) | A (a pKi value≥10 (Ki≤0.1 nM)) | A (a value of 3 or above) |  |  |  |  |  |
| CN(C)C/C=C/C(=O)N1CC(C#N)(COc2nc(-c3ccc(O)cc3)cc3[nH]ncc23)C1 [Compound 3-102] |  |  |  |  |  | A (a value of 3 or above) | > 100 | > 100 | > 100 | 31.6 to 200 | 0.1 to 1 |
| C=CC(=O)N1CC(C#N)(COc2nc(-c3ccc(O)cc3)cc3[nH]ncc23)C1 [Compound 3-103] |  |  |  |  |  | A (a value of 3 or above) | > 100 | 10 to 100 | > 100 | < 31.6 | < 0.1 |
| C=CC(=O)N1CC(C#N)(COc2nc(-c3ccc(O)cc3)nc3[nH]ncc23)C1 [Compound 3-104] |  |  |  |  |  | A (a value of 3 or above) | > 100 | > 100 | > 100 | < 31.6 | < 0.1 |
| CN(C)C/C=C/C(=O)N1CC(C#N)(COc2nc(-c3ccc(O)c(F)c3)cc3[nH]ncc23)C1 [Compound 3-106] | E (a pKi value of 7 or below (Ki of 100 nM or above)) | E (a pKi value of 7 or below (Ki of 100 nM or above)) | E (a pKi value of 7 or below (Ki of 100 nM or above)) | B (a pIC50 value between 6.7 (included) and 7.5 (IC50 between 200 nM and 32 nM)) | B (a pKi value between 9 and 10 (Ki between 1 nM and 0.1 nM)) | A (a value of 3 or above) |  |  |  |  |  |
| C=CC(=O)N1CC(C#N)(COc2nc(-c3ccc(O)c(Cl)c3)cc3[nH]ncc23)C1 [Compound 3-107] | E (a pKi value of 7 or below (Ki of 100 nM or above)) | E (a pKi value of 7 or below (Ki of 100 nM or above)) | E (a pKi value of 7 or below (Ki of 100 nM or above)) | A (a pIC50 value≥7.5 (IC50≤32 nM)) | A (a pKi value≥10 (Ki≤0.1 nM)) | A (a value of 3 or above) |  |  |  |  |  |
| C=CC(=O)N1CC(C#N)(COc2nc(-c3ccc(O)c(F)c3)cc3[nH]ncc23)C1 [Compound 3-108] | E (a pKi value of 7 or below (Ki of 100 nM or above)) | D (a pKi value between 7 and 8 (Ki between 100 nM and 10 nM)) | E (a pKi value of 7 or below (Ki of 100 nM or above)) | A (a pIC50 value≥7.5 (IC50≤32 nM)) | A (a pKi value≥10 (Ki≤0.1 nM)) | A (a value of 3 or above) |  |  |  |  |  |
| C=CC(=O)N1CC(C#N)(COc2nc(-c3ccc(O)c(Cl)c3)nc3[nH]ncc23)C1 [Compound 3-109] |  |  |  |  |  | A (a value of 3 or above) | > 100 | > 100 | > 100 | 31.6 to 200 | 0.1 to 1 |
| C=CC(=O)N1CC(C#N)(COc2nc(-c3ccc(O)c(F)c3)nc3[nH]ncc23)C1 [Compound 3-110] |  |  |  |  |  | A (a value of 3 or above) | > 100 | > 100 | > 100 | 31.6 to 200 | 0.1 to 1 |
| C=CC(=O)N1CC(C#N)(COc2cc(-c3ccc(O)c(F)c3)nc3[nH]ncc23)C1 [Compound 3-111] | E (a pKi value of 7 or below (Ki of 100 nM or above)) | E (a pKi value of 7 or below (Ki of 100 nM or above)) | E (a pKi value of 7 or below (Ki of 100 nM or above)) | C (a pIC50 value between 6 and 6.7 (IC50 between 1 μM and 200 nM)) | B (a pKi value between 9 and 10 (Ki between 1 nM and 0.1 nM)) | A (a value of 3 or above) |  |  |  |  |  |
| C=C(CN(C)C)C(=O)N1CC(COc2nc(-c3ccc(O)cc3)nc3[nH]ncc23)C1 [Compound 3-112] |  |  |  |  |  | A (a value of 3 or above) | > 100 | > 100 | > 100 | 31.6 to 200 | 0.1 to 1 |
